Test results published in patent US20250127906A1, “SMALL-MOLECULE DEGRADERS OF CDK8 AND CDK19” (University of South Carolina, priority 2021, published 2025).

Experiments:
[1] = tested on: CDK8/19-regulated genes; test: QPCR of CDK8/19-regulated genes in HEK-293 wild-type and CDK8/19 double-knockout cells; type: cell-based, human; conditions: for effect on expression of CDK8/19-regulated genes: 200 nM, 3-day treatment
Protocol: CDK8/19 act as transcriptional regulators, and therefore we tested the effects of 3-day treatment with 200 nM PROTAC IA7886 along with 200 nM CDK8/19 kinase inhibitor BI-1347 on a series of CDK8/19-regulated genes, using QPCR.
We have also compared the stability of transcriptional changes induced by a PROTAC and by a kinase inhibitor. In the experiment shown in FIG. 10A, HEK-293 cells were treated with 200 nM of BI-1347 or IA7886 for 3 days, and then the inhibitors were washed off and the restoration of transcriptional changes was monitored 24 hrs and 48 hrs after wash-off.

[2] = target: T1, CDK8 (Homo sapiens, UniProt P49336); test: CDK8 degradation in RPMI 8226 cells (Western blot); type: cell-based; set-up: host or cells: RPMI 8226; conditions: RPMI 8226, concentrations used in FIG. 14A
[3] = tested on: CCL12; test: CCL12 mRNA expression in CT26 tumors in Balb/c mice (QPCR); type: in vivo; conditions: oral gavage 20 mg/kg, 2, 8 or 24 hrs after dosing
Protocol: CT26 cells were injected subcutaneously into syngeneic Balb/c female mice and allowed to grow to 150˜200 mm^3. Tumor-bearing mice then received PROTACs IA7882 or IA7886 by oral gavage at 20 mg/kg in 30% propylene glycol/70% PEG-400 vehicle. Tumors were collected 2, 8 or 24 hrs after dosing and used to measure protein levels of CDK8, pS727 STAT1 and total STAT1 (by western blotting) and mRNA expression of CCL12, a gene that is inhibited by different CDK8/19 inhibitors in CT26 tumors in vivo (by QPCR).

[4] = Serum drug concentrations in CD-1 mice (LCMSMS); type: in vivo; conditions: female CD-1 mice, i.p. 15 mg/kg, 15 min and 1 hr
Protocol: For preliminary evaluation of the bioavailability of the PROTACs, IA7882 and IA7886 were administered to female CD-1 mice via intraperitoneal (i.p.) injection at the dose of 15 mg/kg. Drug concentrations were measured by LCMSMS analysis of serum samples collected at 15 min and 1 hr time point.

[5] = tested on: SK-MM-2 cells; test: SK-MM-2 multiple myeloma cell growth over 20 days continuous treatment; type: cell-based; conditions: BI1347 200 nM, Senexin C 1 μM, IA7886 200 nM, IA7843 1 μM
Protocol: The following CDK8/19 kinase inhibitors were tested for their effects on MM cell lines over 20 days continuous treatment: CDK8/19 kinase inhibitors BI1347 (200 nM) and Senexin C (1 μM), BI1347-derived PROTAC IA7886 (200 nM) and Senexin C-derived PROTAC IA7843 (1 μM). 1-4 million cells were treated with vehicle control (0.1% DMSO), or CDK8/19 kinase inhibitors or PROTACs for 20 days. Every 4 days, cells were counted using BioRAD TC20 Automated Cell Counter with trypan blue staining, and the same number of cells were passaged to a new T25 flask to propagate under the same treatment conditions.

[6] = target: T1, CDK8; test: CDK8 degradation in HEK-293 cells (Western blot, normalized by GAPDH); type: cell-based; set-up: endogenous in cells; host or cells: HEK-293
Procedure, shortened: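 HEK-293 cells were treated for 24 h with or without compound, at 1 μM or 0.3 μM for single-point testing. RIPA lysates were immunoblotted for CDK8, and densitometry gave levels normalized to GAPDH. DC50 is the concentration that reduces CDK8 to half its level in untreated cells.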

T1 sequence (P49336 whole entry): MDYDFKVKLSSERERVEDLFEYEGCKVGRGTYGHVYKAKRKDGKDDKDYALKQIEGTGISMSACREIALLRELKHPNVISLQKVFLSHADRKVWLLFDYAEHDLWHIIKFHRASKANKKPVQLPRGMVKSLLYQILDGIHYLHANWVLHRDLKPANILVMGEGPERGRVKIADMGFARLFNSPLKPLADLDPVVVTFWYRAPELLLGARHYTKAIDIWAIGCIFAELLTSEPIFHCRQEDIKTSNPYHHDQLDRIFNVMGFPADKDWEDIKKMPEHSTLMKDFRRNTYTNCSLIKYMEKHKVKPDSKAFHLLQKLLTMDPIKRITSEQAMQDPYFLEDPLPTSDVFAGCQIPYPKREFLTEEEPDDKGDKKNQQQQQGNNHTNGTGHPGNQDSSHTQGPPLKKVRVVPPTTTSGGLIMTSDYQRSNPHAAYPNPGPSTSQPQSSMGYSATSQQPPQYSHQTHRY
T1 sequence (P24863 whole entry partner): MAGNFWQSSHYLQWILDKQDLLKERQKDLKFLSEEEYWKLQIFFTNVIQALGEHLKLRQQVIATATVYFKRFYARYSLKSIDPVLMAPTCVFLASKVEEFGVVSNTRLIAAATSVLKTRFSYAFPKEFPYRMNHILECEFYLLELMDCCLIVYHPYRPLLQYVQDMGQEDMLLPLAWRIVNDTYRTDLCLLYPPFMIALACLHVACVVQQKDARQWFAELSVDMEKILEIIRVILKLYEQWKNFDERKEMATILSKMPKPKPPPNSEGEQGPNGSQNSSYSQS

% CDK8 remaining ([6]; HEK-293 cells, 24 hours, tested at 1 μM): 19% | CDK8 degradation (in words) ([6]; HEK-293 cells, Western blot): most potent CDK8 degrader in this set | DC50 ([6]; HEK-293 cells, concentration degrading CDK8 to half of level in untreated cells): 2.8 nM | time at which CDK8 degradation reaches maximum ([6]; human 293 cells, 100 nM): about 8 hrs
Compound: O=C(CCCNc1cccc2c1C(=O)N(C1CCC(=O)NC1=O)C2=O)NCCCCCCCCCCC(=O)N1CCN(C(=O)Cn2cc(-c3ccc(-c4cncc5ccccc45)cc3)cn2)CC1 (centres unmarked) [IA7886, 4-[[2-(2,6-dioxo-3-piperidyl)-1,3-dioxo-isoindolin-4-yl]amino]-N-[11-[4-[2-[4-[4-(4-isoquinolyl)phenyl]pyrazol-1-yl]acetyl]piperazin-1-yl]-11-oxo-undecyl]butanamide]
effect on expression of CDK8/19-regulated genes ([1]; CDK8/19 double-knockout (dKO) 293 cells): had no effect in dKO cells | stability of transcriptional changes after wash-off ([1]; HEK-293, 200 nM for 3 days, then 24 hrs and 48 hrs after wash-off): maintained even 48 hrs after wash-off | effect on expression of CDK8/19-regulated genes ([1]; wild-type HEK-293 cells): had similar effects on the expression of the tested genes | CDK8 degradation (in words) [2]: efficiently degraded CDK8 in RPMI 8226 cells | levels of CCL12 mRNA in tumors [3]: decreased in tumors treated with IA7882 or IA7886 2 hrs or 8 hrs (but not 24 hrs) after dosing | serum drug concentrations [4]: readily measurable and were higher for IA7882 than for IA7886 | growth inhibition over 20 days, order of efficacy [5]: BI1347<IA7886<Senexin C<IA7843
